Measurements: US20110081297A1, “Novel Substituted Pyrazoles, 1,2,4-Oxadiazoles, and 1,3,4-Oxadiazoles” (priority 2008, published 2011)

Target: human AD brain tissue homogenate (Homo sapiens, UniProt P05067)
Experiment: Tissue homogenate binding assay (competition with [3H]-DMAB)
Conditions: human AD brain (frontal cortex) homogenate, 1.5 nM [3H]-DMAB radioligand, room temperature, 90 minutes
Method: PET radiotracer candidate compounds were then selected based on their high affinity competition with [^3H]-DMAB in binding to AD brain homogenates. These PET radiotracer candidate compounds were tested to determine if they were effective PgP substrates. Those PET radiotracer candidate compounds with little PgP substrate activity were radiolabeled with [^3H] or [^18F] and tested for binding affinity to human AD brain homogenates as well as binding to human non-AD brain homogenates and in autoradiographic studies using human AD and non-AD brain slices. Candidate radioligands were selected based on their strong binding affinity for human AD brain homogenates, and minimal binding to non-AD control homogenates. A low fraction of non-displaceable binding was also an important criterion. Minimization of white matter binding was an important criterion.
Postmortem frozen human brain samples from donors with clinical diagnosis of Alzheimer's diseases (AD) or normal control subjects (non-AD) were purchased from Analytical Biological Services Inc., at 701-4 Cornell Business Park, Wilmington, Del. 19801. Brain homogenates of frontal cortex were prepared, divided into aliquots and stored at −70° C. prior to use.
[^3H]-DMAB was synthesized at a specific activity of ˜80 Ci/mmol. The final concentration of radioligand for tissue homogenate binding assay was 1.5 nM. Brain homogenates were diluted with phosphate buffered saline (PBS) to 0.4 mg/mL from original 10 mg/mL volume and 200 μl was used in assay for a final concentration of […]. Unlabeled test compounds were dissolved in dimethylsulfoxide (DMSO) at 1 mM. Dilution of test compound to various concentrations was made with PBS containing 2% DMSO. Total binding was defined in the absence of competing compound, and non-displaceable binding was determined in the presence of 1 μM unlabeled self block. Compound dilutions (10×) were added into the assay tube (25 μL each/per tube, separately) containing 200 μL brain homogenate dilution, and the tubes were pre-incubated at room temperature for 10 minutes. Then radioligand dilutions (10×) were added into the assay tube (25 μl each/per tube, separately) to a final volume of 250 μL per tube. Incubation was carried out at room temperature (25° C.) for 90 minutes, and then the assay samples were filtered onto GF/C filters using Skatron 12 well harvester, washing on setting 5-5-5 (˜3×2 ml) ice cold buffer (PBS, pH 7.4). GF/C filter papers for the Skatron harvester were pre-soaked in 0.1% BSA for 1 hour at room temperature before use. Filters were punched into scintillation vials and counted in 2 mL Ultima Gold on Perkin Elmer Tri-Carb 2900TR for 1 minute. The data analysis was done with Prism software. […]

human AD brain tissue homogenate, sequence (P05067 whole entry): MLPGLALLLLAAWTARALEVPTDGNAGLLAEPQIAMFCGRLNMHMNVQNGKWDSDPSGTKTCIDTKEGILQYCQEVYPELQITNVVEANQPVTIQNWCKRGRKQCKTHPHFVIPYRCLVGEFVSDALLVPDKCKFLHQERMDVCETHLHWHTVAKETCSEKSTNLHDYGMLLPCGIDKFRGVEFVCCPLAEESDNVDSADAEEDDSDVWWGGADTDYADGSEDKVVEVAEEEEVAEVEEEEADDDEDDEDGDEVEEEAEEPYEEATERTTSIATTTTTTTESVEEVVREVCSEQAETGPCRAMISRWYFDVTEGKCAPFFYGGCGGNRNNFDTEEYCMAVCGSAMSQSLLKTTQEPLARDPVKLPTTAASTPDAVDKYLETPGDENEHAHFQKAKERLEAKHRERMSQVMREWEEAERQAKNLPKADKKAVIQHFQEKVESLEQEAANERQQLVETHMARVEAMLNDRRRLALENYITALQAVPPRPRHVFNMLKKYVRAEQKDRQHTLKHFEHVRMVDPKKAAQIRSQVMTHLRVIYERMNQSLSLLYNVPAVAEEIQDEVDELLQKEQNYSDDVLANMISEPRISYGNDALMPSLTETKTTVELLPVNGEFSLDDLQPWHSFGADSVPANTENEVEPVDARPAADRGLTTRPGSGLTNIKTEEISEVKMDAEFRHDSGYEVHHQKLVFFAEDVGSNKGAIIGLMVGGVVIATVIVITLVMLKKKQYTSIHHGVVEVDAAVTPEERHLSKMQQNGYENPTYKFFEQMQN

| Structure (SMILES) | IC50 [nM] |
| --- | --- |
| CN(C)c1ccc(-c2cc(-c3cnc4[nH]ccc4c3)n[nH]2)cc1 | 50 |
| COc1ccc(-c2cc(-c3ccc(N(C)C)cc3)n[nH]2)cc1 | 10 |
| COc1ccc(-c2noc(-c3cnc(F)c(C)c3)n2)cc1 | 77 |
| COc1ccc(-c2noc(-c3ccc4cc[nH]c4c3)n2)cc1 | 10 |
